Reference: patent publication US20230406829A1, “Heterocyclic Compound and Preparation Method and Use Thereof” (SYNTRON (JIANGSU) PHARMACEUTICAL TECHNOLOGY CO., LTD., priority 2020, published 2023)
pIC50, pKd: −log10 of the molar value.

The compounds below were run against T1, VISTA protein modified by glycosylation (Homo sapiens, UniProt Q9H7M9) (assay: Binding ability of compounds to VISTA protein (Biacore S200, CM5 chip)). Details: compound diluted in 1.05*PBS-P, fitted.
T1 sequence (Q9H7M9 33-311): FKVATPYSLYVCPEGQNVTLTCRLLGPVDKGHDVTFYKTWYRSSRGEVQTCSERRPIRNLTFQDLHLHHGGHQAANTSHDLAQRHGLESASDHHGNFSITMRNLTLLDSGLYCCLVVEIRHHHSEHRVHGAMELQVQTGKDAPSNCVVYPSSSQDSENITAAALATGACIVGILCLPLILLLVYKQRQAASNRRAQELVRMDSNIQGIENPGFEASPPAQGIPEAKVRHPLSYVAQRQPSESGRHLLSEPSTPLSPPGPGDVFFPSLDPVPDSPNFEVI
Description: Ability ability of compounds to VISTA protein • (I) Experimental Equipment and Reagents • 1. The machine model used in this experiment is: Biacore S200. • 2. S-series CM5 chip. […] Goods number: BR-1000-50, the purchase place is GE Healthcare. • 4.

| pKd | SMILES |
| --- | --- |
| 6.82 | CC(=O)NCCNCc1cccc(-c2nc3c(C)c(-c4ccccc4)ccc3[nH]2)c1 [Compound 1] |
| 6.34 | Cc1c(-c2ccccc2)ccc2nc(-c3cccc(CNCCN)c3)[nH]c12 [Compound 7] |
| 6.47 | CC(=O)NCCNCc1ccc(-c2nc3ccc(-c4ccccc4)c(C)c3[nH]2)cc1 [Compound 10] |

The compounds below were run against T2, recombinant human VISTA protein (Homo sapiens, UniProt Q9H7M9) (assay: Inhibition of VISTA interaction: rescue of IFN-γ release in human PBMC (ELISA)). Details: 72 h, read-out: IC50 (VISTA interaction inhibitory activity).
T2 construct: purchased R & D Systems 7126-B7
Format: cell-based
Description: • 2. Determination of the inhibition effect of the compounds against VISTA interaction: • (1) Experimental Equipment and Reagents • 1. […] SpectraMax i3X Multifunction microplate reader (Molecular Device) • 3. […] Experimental procedure: • 1.1 Recombinant human VISTA (2.5 μg/ml) and anti-human CD3 antibody (2.5 μg/ml) were added to 96-well plates and stored in 4 C overnight. • 1.2 The next day, the anti-human VISTA antibody was added to the co-incubation for 30 min. Thereafter, cells were washed with 1*PBS and test compounds were added for 30 min. […] At 37 C, 5% CO2Below the conditions, the incubation was continued for 72 h. • 1.3 After separation by centrifugation at 4 C, 200 g*5 min, the supernatant was collected.

T2 sequence (Q9H7M9 with tags, fused parts or gaps limits assumed): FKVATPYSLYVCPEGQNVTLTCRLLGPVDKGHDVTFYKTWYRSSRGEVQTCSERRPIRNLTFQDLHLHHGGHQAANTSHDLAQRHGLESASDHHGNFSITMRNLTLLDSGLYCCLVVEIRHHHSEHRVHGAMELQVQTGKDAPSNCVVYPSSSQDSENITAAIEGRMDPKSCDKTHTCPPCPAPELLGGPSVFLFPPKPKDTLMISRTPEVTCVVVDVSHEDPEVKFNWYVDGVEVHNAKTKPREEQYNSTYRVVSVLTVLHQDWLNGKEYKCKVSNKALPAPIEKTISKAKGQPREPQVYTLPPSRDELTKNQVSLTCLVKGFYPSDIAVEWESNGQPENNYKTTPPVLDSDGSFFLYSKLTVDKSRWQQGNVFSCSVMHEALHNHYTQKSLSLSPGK

| SMILES | pIC50 |
| --- | --- |
| Cc1c(-c2ccccc2)ccc2nc(-c3cccc(CNCC(=O)O)c3)[nH]c12 [Compound 2] | 6.00 to 7.00 |
| Cc1c(-c2ccccc2)ccc2[nH]c(-c3cccc(CN4CCCC[C@H]4C(=O)O)c3)nc12 [Compound 4] | 7.00 to 9.00 |
| Cc1c(-c2ccccc2)ccc2[nH]c(-c3cccc(CN[C@H](CO)C(=O)O)c3)nc12 [Compound 5] | 7.00 to 9.00 |
| Cc1c(-c2ccccc2)ccc2[nH]c(-c3cccc(CNC[C@@H](O)CC(=O)O)c3)nc12 [Compound 6] | 7.00 to 9.00 |
| Cc1c(-c2ccccc2)ccc2nc(-c3cccc(CNCCN)c3)[nH]c12 [Compound 7] | 7.00 to 9.00 |
| Cc1c(-c2ccccc2)ccc2[nH]c(-c3cccc(CN4CC[C@@H](O)C4)c3)nc12 [Compound 8] | 6.00 to 7.00 |
| Cc1c(-c2ccccc2)ccc2[nH]c(-c3cccc(CNC[C@@H]4CCNC4=O)c3)nc12 [Compound 9] | 7.00 to 9.00 |
| Cc1c(-c2ccccc2)ccc2[nH]c(-c3ccc(CNCC(=O)O)cc3)nc12 [Compound 11] | 7.00 to 9.00 |
| Cc1c(-c2ccccc2)ccc2nc(-c3ccc(CNCCO)cc3)[nH]c12 [Compound 12] | 6.00 to 7.00 |
| Cc1c(-c2ccccc2)ccc2[nH]c(-c3ccc(CN4CCCC[C@H]4C(=O)O)cc3)nc12 [Compound 13] | 7.00 to 9.00 |
| Cc1c(-c2ccccc2)ccc2[nH]c(-c3ccc(CN[C@H](CO)C(=O)O)cc3)nc12 [Compound 14] | 6.00 to 7.00 |
| Cc1c(-c2ccccc2)ccc2[nH]c(-c3ccc(CNC[C@@H](O)CC(=O)O)cc3)nc12 [Compound 15] | 7.00 to 9.00 |
| CC(=O)NCCNCc1cccc(-c2nc3c(C)c(-c4ccc5c(c4)OCCO5)ccc3[nH]2)c1 [Compound 18] | 7.00 to 9.00 |
| COc1cccc(-c2nc3c(C)c(-c4ccccc4)ccc3[nH]2)c1 [Compound 19] | 6.00 to 7.00 |
| Cc1c(-c2ccccc2)ccc2[nH]c(-c3cccc(OCc4ccccc4)c3)nc12 [Compound 20] | 7.00 to 9.00 |
| Cc1c(-c2ccccc2)ccc2[nH]c(-c3cccc(OCc4cccnc4)c3)nc12 [Compound 21] | 6.00 to 7.00 |
| Cc1c(-c2ccccc2)ccc2[nH]c(-c3ccc(CNCCO)c(OCc4cccnc4)c3)nc12 [Compound 22] | 7.00 to 9.00 |
| COc1cc(-c2nc3c(C)c(-c4ccccc4)ccc3[nH]2)ccc1CN1CC[C@@H](O)C1 [Compound 23] | 7.00 to 9.00 |
| COc1cc(-c2nc3c(C)c(-c4ccccc4)ccc3[nH]2)ccc1CNC[C@@H]1CCC(=O)N1 [Compound 24] | 7.00 to 9.00 |
| Cc1c(-c2ccccc2)ccc2nc(-c3ccc(CNCCO)cc3)cn12 [Compound 25] | 6.00 to 7.00 |

| SMILES | pIC50 |
| --- | --- |
| Cc1c(-c2ccccc2)ccc2nc(-c3cccc(CNCCO)c3)cn12 [Compound 27] | 7.00 to 9.00 |
| CC(=O)NCCNCc1cccc(-c2nc3ccc(Br)c(C)c3[nH]2)c1 [Compound 28] | 7.00 to 9.00 |
| CC(=O)NCCNC(=O)c1cccc(-c2nc3c(C)c(-c4ccccc4)ccc3[nH]2)c1 [Compound 30] | 7.00 to 9.00 |
| Cc1c(-c2ccccc2)ccc2[nH]c(-c3cccc(C(=O)O)c3)nc12 [Compound 31] | 7.00 to 9.00 |
| CC(=O)NCCNCc1cccc(-c2nc3cc(C)ccc3[nH]2)c1 [Compound 34] | 7.00 to 9.00 |
| COc1ccc2[nH]c(-c3cccc(CNCCNC(C)=O)c3)nc2c1 [Compound 35] | 6.00 to 7.00 |
| Cc1c(-c2ccccc2)ccc2[nH]c(-c3cccc(C(=O)NCCO)c3)nc12 [Compound 38] | 7.00 to 9.00 |
| Cc1c(-c2ccccc2)ccc2[nH]c(-c3cccc(OCCNCCO)c3)nc12 [Compound 39] | 6.00 to 7.00 |
| Cc1c(-c2ccccc2)ccc2[nH]c(-c3cccc(COCCN)c3)nc12 [Compound 40] | 6.00 to 7.00 |
| Cc1c(-c2ccccc2)ccc2[nH]c(-c3cccc(S(=O)(=O)NCCO)c3)nc12 [Compound 41] | 6.00 to 7.00 |
| CCCOC(=O)c1cccc(-c2nc3c(C)c(-c4ccccc4)ccc3[nH]2)c1 [Compound 42] | 6.00 to 7.00 |
| CC(=O)NCCNCc1cccc(-c2cc3ccncn3c2)c1 [Compound 45] | 7.00 to 9.00 |
| COc1cc2cc(-c3cccc(CNCCNC(C)=O)c3)cn2cn1 [Compound 46] | 7.00 to 9.00 |
| CC(=O)NCCNCc1cccc(-c2nc3cc(CO)ccn3n2)c1 [Compound 49] | 6.00 to 7.00 |
| CC(=O)NCCNCc1cccc(-c2nc3c(O)cccc3[nH]2)c1 [Compound 59] | 7.00 to 9.00 |
| CC(=O)NCCNCc1cccc(-c2nc3c(O)c(O)ccc3[nH]2)c1 [Compound 60] | 7.00 to 9.00 |
| CC(=O)NCCNCc1cccc(-c2nc3c4c(ccc3[nH]2)OCCO4)c1 [Compound 61] | 6.00 to 7.00 |
| CC(=O)NCCNCc1cccc(-c2nc3cc(-c4ccco4)ccc3[nH]2)c1 [Compound 62] | 6.00 to 7.00 |
| CC(=O)NCCNCc1cccc(-c2nc3cc(C#N)ccc3[nH]2)c1 [Compound 64] | 7.00 to 9.00 |

Now from value to compound:

| pIC50 | SMILES |
| --- | --- |
| 7.00 to 9.00 | CC(=O)NCCNCc1cccc(-c2nc3c(C)c(-c4ccccc4)ccc3[nH]2)c1 [Compound 1] |
| 6.00 to 7.00 | CC(=O)NCCNCc1ccc(-c2nc3ccc(-c4ccccc4)c(C)c3[nH]2)cc1 [Compound 10] |
| 7.00 to 9.00 | CC(=O)NCCNCc1cccc(-c2nc3c(Br)c(-c4ccccc4)ccc3[nH]2)c1 [Compound 16] |
| 7.00 to 9.00 | CC(=O)NCCNCc1cccc(-c2nc3c(Cl)c(-c4ccccc4)ccc3[nH]2)c1 [Compound 17] |
| 6.00 to 7.00 | CC(=O)NCCNCc1ccc(-c2cn3c(C)c(-c4ccccc4)ccc3n2)cc1 [Compound 26] |
| 7.00 to 9.00 | CC(=O)NCCNCc1cccc(-c2nc3ccccc3[nH]2)c1 [Compound 29] |
| 7.00 to 9.00 | CC(=O)NCCNCc1cccc(-c2nc3cc(-c4ccccc4)ccc3[nH]2)c1 [Compound 32] |
| 7.00 to 9.00 | CC(=O)NCCNCc1cccc(-c2nc3c(F)c(-c4ccccc4)ccc3[nH]2)c1 [Compound 36] |
| 6.00 to 7.00 | CC(=O)NCCNCc1cccc(-c2nc3c(C(F)(F)F)c(-c4ccccc4)ccc3[nH]2)c1 [Compound 37] |
| 6.00 to 7.00 | CC(=O)NCCNCc1cccc(-c2cc3ccccn3c2)c1 [Compound 43] |
| 6.00 to 7.00 | CC(=O)NCCNCc1cccc(-c2cc3c(C)c(-c4ccccc4)ccn3c2)c1 [Compound 44] |
| 7.00 to 9.00 | CC(=O)NCCNCc1cccc(-c2cn3ccc(-c4ccccc4)nc3n2)c1 [Compound 47] |
| 6.00 to 7.00 | CC(=O)NCCNCc1cccc(-c2cn3ncc(-c4ccccc4)c(C)c3n2)c1 [Compound 48] |
| 6.00 to 7.00 | CC(=O)NCCNCc1cccc(-c2nc3c(C)c(-c4ccccc4)ccn3n2)c1 [Compound 50] |
| 6.00 to 7.00 | CC(=O)NCCNCc1cccc(C2=CC3C=CC(c4ccccc4)=NC3O2)c1 (centres unmarked) [Compound 51] |
| 6.00 to 7.00 | CC(=O)NCCNCc1cccc(C2=NC3C=CC(c4ccccc4)=C(C)C3O2)c1 (centres unmarked) [Compound 52] |
| 6.00 to 7.00 | CC(=O)NCCNCc1cccc(C2=NC3C=CC(c4ccccc4)=C(C)C3S2)c1 (centres unmarked) [Compound 53] |
| 6.00 to 7.00 | CC(=O)NCCNCc1cccc(-c2nc3c(O)c(-c4ccccc4)ccc3[nH]2)c1 [Compound 54] |
| 7.00 to 9.00 | COc1c(-c2ccccc2)ccc2[nH]c(-c3cccc(CNCCNC(C)=O)c3)nc12 [Compound 55] |
| 7.00 to 9.00 | CCc1c(-c2ccccc2)ccc2[nH]c(-c3cccc(CNCCNC(C)=O)c3)nc12 [Compound 56] |
| 7.00 to 9.00 | CC(=O)NCCNCc1cccc(-c2nc3c(C#N)c(-c4ccccc4)ccc3[nH]2)c1 [Compound 57] |
| 6.00 to 7.00 | CC(=O)NCCNCc1cccc(-c2nc3c(CO)c(-c4ccccc4)ccc3[nH]2)c1 [Compound 58] |
| 6.00 to 7.00 | CC(=O)NCCNCc1cccc(-c2nc3cc(OCc4ccccc4)ccc3[nH]2)c1 [Compound 63] |
